Data from ChEMBL document CHEMBL4382194, “New Modalities, Technologies, and Partnerships in Probe and Lead Generation: Enabling a Mode-of-Action Centric Paradigm” (J Med Chem, 2018).
Numbered stars: 1 amine (or outer) side, 2 acyl side, 3 side chain; on linkers, the order of the positions; unused ones are H or OH. Bridge positions count the residues as written; N and C are the ends. Peptide text beside a SMILES is read from it. TBMB = c1c(C[*:1])cc(C[*:3])cc1C[*:2]

Tests used:
[1] = molecular target: T1, Epidermal growth factor receptor substrate 15 (Homo sapiens, UniProt P42566); experiment: Inhibition of stonin-2 binding to Eps15 (unknown origin)
T1 sequence (P42566 whole entry): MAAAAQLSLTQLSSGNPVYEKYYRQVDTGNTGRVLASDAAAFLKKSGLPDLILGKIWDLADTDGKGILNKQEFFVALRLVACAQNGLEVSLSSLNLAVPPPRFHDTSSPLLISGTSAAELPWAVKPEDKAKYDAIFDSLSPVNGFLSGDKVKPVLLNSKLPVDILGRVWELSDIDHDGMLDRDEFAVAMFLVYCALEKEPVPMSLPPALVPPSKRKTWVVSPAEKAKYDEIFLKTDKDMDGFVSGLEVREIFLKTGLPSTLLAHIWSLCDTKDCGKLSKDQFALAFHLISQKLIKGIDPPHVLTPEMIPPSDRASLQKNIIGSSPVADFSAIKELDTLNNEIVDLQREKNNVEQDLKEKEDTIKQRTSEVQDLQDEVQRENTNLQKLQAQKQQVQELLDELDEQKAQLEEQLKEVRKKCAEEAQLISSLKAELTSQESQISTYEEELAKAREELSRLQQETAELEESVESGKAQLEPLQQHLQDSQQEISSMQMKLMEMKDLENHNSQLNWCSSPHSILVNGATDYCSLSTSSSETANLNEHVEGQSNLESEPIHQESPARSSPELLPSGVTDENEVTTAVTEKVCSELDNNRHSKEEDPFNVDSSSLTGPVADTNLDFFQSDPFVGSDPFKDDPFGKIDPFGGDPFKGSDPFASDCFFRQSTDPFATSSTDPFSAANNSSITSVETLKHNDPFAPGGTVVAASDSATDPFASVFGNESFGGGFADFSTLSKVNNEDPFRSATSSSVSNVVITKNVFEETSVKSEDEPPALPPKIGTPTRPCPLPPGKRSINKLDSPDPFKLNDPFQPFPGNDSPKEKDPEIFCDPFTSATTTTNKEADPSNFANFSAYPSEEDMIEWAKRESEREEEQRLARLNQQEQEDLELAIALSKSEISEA

[2] = Modulation of full length SMN2 mRNA (unknown origin) splicing by luciferase reporter gene assay; set-up: species or system Homo sapiens
[3] = species on record: Homo sapiens; experiment: Selectivity ratio of Ki for human MC1R expressed in HEK cell membranes to Ki for human MC4R expressed in HEK cell membranes; assay type: cell-based
[4] = species on record: Homo sapiens; experiment: Selectivity ratio of Ki for human MC2R expressed in HEK cell membranes to Ki for human MC4R expressed in HEK cell membranes; assay type: cell-based
[5] = species on record: Homo sapiens; experiment: Selectivity ratio of Ki for human MC5R expressed in HEK cell membranes to Ki for human MC4R expressed in HEK cell membranes; assay type: cell-based
[6] = molecular target: Plasma kallikrein (Homo sapiens, UniProt P03952); experiment: Binding affinity to human plasma kallikrein
[7] = molecular target: 80S Ribosome; experiment: Inhibition of human 80S ribosome-mediated PCSK9 translation expressed in CHO-K1 cells assessed as reduction in PCSK9 secretion; assay type: cell-based

Chain of Plasma kallikrein (P03952 20-390 limits assumed): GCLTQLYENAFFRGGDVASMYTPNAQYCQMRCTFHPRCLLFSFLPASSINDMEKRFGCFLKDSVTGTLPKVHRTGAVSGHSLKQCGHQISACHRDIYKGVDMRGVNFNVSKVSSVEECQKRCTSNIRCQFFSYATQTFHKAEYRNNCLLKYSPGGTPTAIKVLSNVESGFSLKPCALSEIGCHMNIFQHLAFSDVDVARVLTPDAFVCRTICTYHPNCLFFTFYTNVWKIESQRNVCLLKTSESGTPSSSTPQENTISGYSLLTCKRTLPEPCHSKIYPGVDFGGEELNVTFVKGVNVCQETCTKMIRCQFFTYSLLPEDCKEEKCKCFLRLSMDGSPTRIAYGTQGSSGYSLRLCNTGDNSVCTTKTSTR
Chain of Plasma kallikrein (P03952 391-638 limits assumed): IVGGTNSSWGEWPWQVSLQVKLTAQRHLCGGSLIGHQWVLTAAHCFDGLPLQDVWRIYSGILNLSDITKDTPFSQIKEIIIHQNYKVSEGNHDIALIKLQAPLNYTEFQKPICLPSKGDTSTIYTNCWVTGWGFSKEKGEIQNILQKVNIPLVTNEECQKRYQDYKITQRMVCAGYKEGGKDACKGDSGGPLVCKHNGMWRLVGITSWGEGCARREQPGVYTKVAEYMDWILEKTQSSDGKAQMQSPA

Compound: C[C@@H]1NC(=O)[C@H](CCCNC(=N)N)NC(=O)[C@H](Cc2c[nH]c3ccccc23)NC(=O)[C@@H]2CCCN2C(=O)[C@H](N)CSCc2cccc(c2)CSC[C@@H](C(=O)O)NC(=O)[C@H](Cc2ccccc2)NC(=O)[C@@H]2CCCN2C(=O)[C@H](CC(N)=O)NC(=O)[C@H]([C@@H](C)O)NC1=O
- Kd [1]: 0.37 µM

Compound: CN(c1ccc(-c2ccc(-c3cn[nH]c3)cc2O)nn1)C1CC(C)(C)NC(C)(C)C1
- EC50 [2]: 0.005 µM

Compound: CC(C)C[C@@H]1NC(=O)CNC(=O)[C@H](CC(N)=O)NC(=O)[C@H](CCCNC(=N)N)NC(=O)[C@H]([C@@H](C)O)NC(=O)[C@@H]2CSSC[C@@H]3NC(=O)[C@H]([C@@H](C)O)NC(=O)CNC(=O)CNC(=O)[C@H](C(C)C)NC(=O)[C@@H]4CSSC[C@H](NC(=O)[C@H]([C@@H](C)O)NC(=O)[C@H](CSSC[C@H](NC(=O)[C@H](C(C)C)NC(=O)[C@@H]5CCCN5C1=O)C(=O)NCC(=O)N[C@@H](CCC(=O)O)C(=O)N[C@@H]([C@@H](C)O)C(=O)N4)NC(=O)CNC(=O)[C@@H]1CCCN1C(=O)[C@H]([C@@H](C)O)NC(=O)[C@H](CC(N)=O)NC3=O)C(=O)N[C@@H](CO)C(=O)N[C@@H](Cc1c[nH]c3ccccc13)C(=O)N1CCC[C@H]1C(=O)N[C@@H](C(C)C)C(=O)N2
- Ratio Ki [3]: 100 to 300
- Ratio Ki [4]: 100 to 300
- Ratio Ki [5]: 100 to 300

Compound: CC(C)C[C@@H]1NC(=O)[C@H](C)NC(=O)[C@H](CCC(=O)O)NC(=O)[C@H](CC(=O)O)NC(=O)[C@H](C)NC(=O)[C@@H]2CCCN2C(=O)[C@@H]2CSCc3cc(cc(c3)CSC[C@@H](C(=O)NCC(=O)O)NC1=O)CSC[C@H](NC(=O)[C@H](C)N)C(=O)N[C@@H](CO)C(=O)N[C@@H](CC(=O)O)C(=O)N[C@@H](CCCNC(=N)N)C(=O)N[C@@H](Cc1ccccc1)C(=O)N[C@@H](CCCNC(=N)N)C(=O)N[C@@H](CC(N)=O)C(=O)N2 (H-ACSDRFRNCPADEALCG-OH; linker 2-9-16 via TBMB)
- Kd [6]: 0.02 µM

Compound: COc1ccc(CCC(=O)N(c2nccc3c2CC=CC3)[C@@H]2CCCNC2)cc1
- EC50 [7]: 2.2 µM
